Like-named read-outs stand apart in the source and are kept apart here. Square brackets hold non-standard residues; d marks the D form. Peptide text beside a SMILES is read from it. 2Pal = N[C@@H](Cc1ccccn1)C(=O)O; 3Pal = N[C@@H](Cc1cccnc1)C(=O)O
Columns and labels:
HA-mouse µOR = molecular target: T1, HA-mouse µOR (Mus musculus, UniProt P42866); assay: cAMP GloSensor inhibition assay in HEK 293 cells; type: cell-based; conditions: for LogR (µOR) cAMP: operational model Log R (τ/KA); for cAMP µOR Efficacy (%+SD): relative to DAMGO = 100; for IC50: HEK 293, forskolin 30 µM
T1 construct: HA; expressed in transfected cells; host or cells: HEK 293
T1 sequence (P42866 whole entry): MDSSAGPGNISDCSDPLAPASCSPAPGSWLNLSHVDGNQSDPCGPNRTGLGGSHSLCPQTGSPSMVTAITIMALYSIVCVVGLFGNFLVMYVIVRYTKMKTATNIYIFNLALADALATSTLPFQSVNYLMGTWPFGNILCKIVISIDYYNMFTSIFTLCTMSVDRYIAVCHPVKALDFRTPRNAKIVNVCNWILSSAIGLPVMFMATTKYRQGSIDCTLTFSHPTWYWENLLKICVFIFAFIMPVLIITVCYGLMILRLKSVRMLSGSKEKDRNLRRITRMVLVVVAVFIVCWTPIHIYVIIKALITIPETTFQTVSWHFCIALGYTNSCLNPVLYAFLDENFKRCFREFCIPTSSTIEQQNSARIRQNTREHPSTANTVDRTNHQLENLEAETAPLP
Protocol: (§2) In brief, for cAMP inhibition assays HEK 293 (Life Technologies, Grand Island, NY, USA) cells were transiently transfected in a 1:3 ratio with FLAG-mouse δOR, or HA-mouse µOR and pGloSensor22F-cAMP plasmids (Promega, Madison, WI, USA) using Xtremegene9 (Sigma). Two days post-transfection cells (20,000 cells/well, 7.5 µL) were seeded in low volume Greiner 384-well plates (#82051-458, VWR, Batavia, IL, USA) and were incubated with Glosensor reagent (Promega, 7.5 µL, 2% final concentration) for 90 min at room temperature. […] For β-arrestin recruitment assays, CHO-human µOR PathHunter β-arrestin 2 cells or CHO-human δOR PathHunter β-arrestin 2 cells (DiscoverX, Fremont, CA, USA) were plated (2,500 cells/well, 10 µL) one day prior to stimulation with 2.5 µL drug solution for 90 min at 37 °C/5% CO2, after which cells were incubated with 6 µL cell PathHunter assay buffer (DiscoverX) for 60 min at room temperature as per the manufacturer’s protocol. Luminescence for each of these assays was measured using a FlexStation3 plate reader (Molecular Devices, Sunnyvale, CA, USA).
(§3) All data are presented as means ± standard error of the mean, and analysis was performed using GraphPad Prism 8 software (GraphPad Software, La Jolla, CA). For in vitro assays, nonlinear regression was conducted to determine pIC50 (cAMP) or pEC50 (β-arrestin 2 recruitment). […] The averages of each independent run were counted as a single experiment and combined to provide a composite curve in favor of providing a ‘representative’ curve. In each experimental run, a positive control/reference compound was utilized to allow the data to be normalized and to calculate the log bias value. A minimum of three independent values were obtained for each compound in each of the cellular assays.

Rat plasma stability = conditions: for Degradation Products (First Appearance): rat plasma, UPLC-mass spectrometry, time of first appearance in parentheses; for half-life: rat, plasma
Protocol: Peptides were synthesized using an Aapptec Focus XC automated peptide synthesizer coupled with a heating system using a solid phase peptide synthesis protocol using Fmoc chemistry. Preparative RP-HPLC was performed using an appropriate column and solvent system (described below) and final purity of peptides was determined by UV area % from UPLC analysis. Peptides were purified by Teledyne ISCO EZ Prep system on RediSep® C18 Prep column (30 × 250 mm, 100 Å). […] Plasma stability was also assessed using the above UPLC column and solvent gradient program using a Waters H class Plus Acquity UPLC system coupled with a QDa detector using protocol B.
Sprague Dawley rat plasma containing K2-ethylenediaminetetraacetic acid (Innovative Research, MI, USA) was transferred into 300 µL aliquots and stored at −20 °C until use. […] After adding analog, an aliquot of the mixture was removed at each indicated time point (0, 5, 10, 15, 20, 30, 60, 120, 240 min) and immediately quenched with 100 μL of a methanol solution containing 20 μM Fmoc-Leu-OH as an internal standard. […] Then, the filtrate was transferred into vials and a 5 μL sample of the resulting solution was analyzed on an UPLC system coupled with a QDa detector. […] Determination of half-life (t1/2) was carried out by using the GraphPad Prism one-phase decay method.

FLAG-mouse δOR = molecular target: T2, FLAG-mouse δOR (Mus musculus, UniProt P32300); assay: cAMP GloSensor inhibition assay in HEK 293 cells; type: cell-based; conditions: for IC50: HEK 293, forskolin 30 µM; for LogR (δOR) cAMP: operational model Log R (τ/KA); for cAMP δOR Efficacy (%+SD): relative to Leu-enkephalin = 100; for G Protein Selectivity (δOR vs µOR): cAMP potency δOR vs µOR
T2 construct: FLAG; expressed in transfected cells; host or cells: HEK 293
T2 sequence (P32300 whole entry): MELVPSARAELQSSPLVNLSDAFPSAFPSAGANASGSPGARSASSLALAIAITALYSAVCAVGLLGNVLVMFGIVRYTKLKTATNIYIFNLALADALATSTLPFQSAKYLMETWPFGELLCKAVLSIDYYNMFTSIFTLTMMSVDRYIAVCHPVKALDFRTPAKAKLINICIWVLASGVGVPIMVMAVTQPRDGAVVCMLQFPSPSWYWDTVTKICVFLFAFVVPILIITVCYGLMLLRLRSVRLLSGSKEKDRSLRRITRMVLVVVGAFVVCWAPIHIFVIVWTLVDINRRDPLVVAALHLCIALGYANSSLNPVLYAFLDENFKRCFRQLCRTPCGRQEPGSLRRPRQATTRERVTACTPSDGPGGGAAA
Protocol: as §2, §3

µOR [1] = molecular target: T3, µOR (Homo sapiens, UniProt P35372); assay: cell-based; type: cell-based
T3 sequence (P35372 whole entry): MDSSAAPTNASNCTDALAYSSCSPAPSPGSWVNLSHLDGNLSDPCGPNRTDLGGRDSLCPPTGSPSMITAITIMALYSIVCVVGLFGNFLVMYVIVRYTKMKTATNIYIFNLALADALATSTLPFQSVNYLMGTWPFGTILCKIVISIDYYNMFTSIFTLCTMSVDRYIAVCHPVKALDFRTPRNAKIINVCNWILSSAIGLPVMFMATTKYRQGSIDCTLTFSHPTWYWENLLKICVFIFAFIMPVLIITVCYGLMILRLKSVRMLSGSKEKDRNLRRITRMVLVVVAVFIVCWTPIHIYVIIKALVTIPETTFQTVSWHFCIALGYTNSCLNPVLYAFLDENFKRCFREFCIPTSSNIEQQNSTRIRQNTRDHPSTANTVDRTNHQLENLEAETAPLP
Protocol: as §2, §3

µOR [2] = molecular target: T3, µOR; assay: Bias factor calculation (operational model, cAMP vs β-arrestin 2); conditions: DAMGO as reference, >1 = more G protein-biased
Protocol: Bias factors were calculated using the operational model equation in Prism 8 to calculate Log R (τ/KA) (Table S2) as previously described [12]. […] A bias factor > 1 meant that the agonist was more G protein-biased than the reference compound; A bias factor < 1 meant that the agonist was less G protein-biased than the reference compound.

µOR [3] = molecular target: T3, µOR; assay: Competition radioligand binding, [3H]DAMGO
Protocol: (§1) Next, 100 µL of membrane suspension containing 7 µg protein was added to the agonist wells and incubated for 90 min at room temperature. The reaction mixture was then filtered over a GF-B filter plate (Perkin Elmer) followed by four quick washes with ice-cold 50 mM Tris HCl. The plate was dried overnight, after which 50 µL scintillation fluid (Ultimagold uLLT) was added and radioactivity was counted on a Packard TopCount NXT scintillation counter. All working solutions were prepared in a radioligand assay buffer containing 50 mM Tris HCl, 10 mM MgCl2, and 1 mM ethylenediaminetetraacetic acid at pH 7.4.

δOR [4] = molecular target: T4, δOR (Homo sapiens, UniProt P41143); assay: Competition radioligand binding, [3H]DPDPE; conditions: for Binding Selectivity (δOR vs µOR): ratio of Ki values
T4 sequence (P41143 whole entry): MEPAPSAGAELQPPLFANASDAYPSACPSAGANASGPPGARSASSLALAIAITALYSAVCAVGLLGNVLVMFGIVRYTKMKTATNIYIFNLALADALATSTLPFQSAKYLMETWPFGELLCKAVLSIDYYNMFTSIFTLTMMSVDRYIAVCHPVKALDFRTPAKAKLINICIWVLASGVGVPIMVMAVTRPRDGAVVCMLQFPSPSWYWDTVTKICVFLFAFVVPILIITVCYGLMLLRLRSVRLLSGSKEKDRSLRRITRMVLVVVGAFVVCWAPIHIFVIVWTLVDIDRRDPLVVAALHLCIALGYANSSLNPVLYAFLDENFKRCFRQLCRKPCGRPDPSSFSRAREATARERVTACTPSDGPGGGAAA
Protocol: as §1

δOR [5] = molecular target: T4, δOR; assay: PathHunter β-arrestin 2 recruitment assay in CHO cells
Protocol: as §2, §3

[6] = CHO PathHunter, read-out: β-Arrestin 2 EC50 (nM) µOR

SMILES	LogR (µOR) cAMP (HA-mouse µOR)	cAMP µOR Efficacy (%+SD) (HA-mouse µOR) [%]	Degradation Products (First Appearance) (Rat plasma stability)	half-life (Rat plasma stability) [min]	IC50 (FLAG-mouse δOR; read-out: cAMP IC50 (nM) δOR) [nM]	LogR (δOR) cAMP (FLAG-mouse δOR)	cAMP δOR Efficacy (%+SD) (FLAG-mouse δOR) [%]	EC50 (µOR [1]) [nM]	LogR (µOR) β-arr2 (µOR [1])	β-Arrestin 2 µOR Efficacy (% + SEM) (µOR [1]) [%]	Bias Factor µOR (DG = Ref) (µOR [2])	IC50 (HA-mouse µOR; read-out: cAMP IC50 (nM) µOR) [nM]	Ki (µOR [3]) [nM]	further results
CC(C)C[C@H](NC(=O)[C@H](Cc1cccc(F)c1)NC(=O)CNC(=O)CNC(=O)[C@@H](N)Cc1ccc(O)cc1)C(=O)O [Compound 1a, H2N-Tyr-Gly-Gly-(meta-F)Phe-Leu-OH]	8.0	98 ± 6	Gly-Gly-(meta-F)Phe-Leu (5 min) (meta-F)Phe-Leu (60 min)	82.3	0.39	9.4	95 ± 6	575	5.8	75 ± 13	22.2			IC50 (FLAG-mouse δOR; read-out: cAMP pIC50 ± SEM (δOR) (converted)): 0.339 nM
CC(C)C[C@H](NC(=O)[C@H](Cc1cccc(Cl)c1)NC(=O)CNC(=O)CNC(=O)[C@@H](N)Cc1ccc(O)cc1)C(=O)O [Compound 1b, H2N-Tyr-Gly-Gly-(meta-Cl)Phe-Leu-OH]	7.5	99 ± 7	Gly-Gly-(meta-Cl)Phe-Leu (5 min) (meta-Cl)Phe-Leu (30 min)	37.8	0.022	10.6	94 ± 5	67.6	7.2	96 ± 8	0.3	30.2		
CC(C)C[C@H](NC(=O)[C@H](Cc1cccc(Br)c1)NC(=O)CNC(=O)CNC(=O)[C@@H](N)Cc1ccc(O)cc1)C(=O)O [Compound 1c, H2N-Tyr-Gly-Gly-(meta-Br)Phe-Leu-OH]	8.1	104 ± 11	Gly-Gly-(meta-Br)Phe-Leu (5 min) (meta-Br)Phe-Leu (15 min)	21.5	0.03	10.5	96 ± 4	35.5	7.2	79 ± 6	1.2		0.13	IC50 (HA-mouse µOR; read-out: cAMP pIC50 ± SEM (µOR) (converted)): 10 nM
CC(C)C[C@H](NC(=O)[C@H](Cc1cccc(I)c1)NC(=O)CNC(=O)CNC(=O)[C@@H](N)Cc1ccc(O)cc1)C(=O)O [Compound 1d]	8.0	94 ± 11	Gly-Gly-(meta-I)Phe-Leu (5 min) (meta-I)Phe-Leu (15 min)	13.2	0.025		97 ± 4	46.8	6.6	70 ± 3	3.2	4.27	0.14	
Cc1cccc(C[C@H](NC(=O)CNC(=O)CNC(=O)[C@@H](N)Cc2ccc(O)cc2)C(=O)N[C@@H](CC(C)C)C(=O)O)c1 [Compound 1e]	8.1	85 ± 10	Gly-Gly-(meta-Me)Phe-Leu (5 min) (meta-Me)Phe-Leu (20 min)	39.5	0.039	10	92 ± 8	186	6.1	71 ± 3	11.5	3.72	0.14	
COc1cccc(C[C@H](NC(=O)CNC(=O)CNC(=O)[C@@H](N)Cc2ccc(O)cc2)C(=O)N[C@@H](CC(C)C)C(=O)O)c1 [Compound 1f]	7.4	87 ± 5	Gly-Gly-(meta-OMe)Phe-Leu (5 min) (meta-OMe)Phe-Leu (20 min)	46.1	0.14	9.8	98 ± 10	589	5.6	67 ± 3		8.12		Bias Factor µOR (DG = Ref) (µOR [2]; listed as 1f (OMe)): 8.4
CC(C)C[C@H](NC(=O)[C@H](Cc1cccc(C(F)(F)F)c1)NC(=O)CNC(=O)CNC(=O)[C@@H](N)Cc1ccc(O)cc1)C(=O)O [Compound 1g]	8.1	90 ± 4	Gly-Gly-(meta-CF3)Phe-Leu (5 min) (meta- CF3)Phe-Leu (30 min)	44.5	0.11	9.7	92 ± 8	56.2	6.6	71 ± 3	4.3	2.45		
CC(C)C[C@H](NC(=O)[C@H](Cc1cccc(C#N)c1)NC(=O)CNC(=O)CNC(=O)[C@@H](N)Cc1ccc(O)cc1)C(=O)O [Compound 1h]	7.5	92 ± 13	Gly-Gly-(meta-CN)Phe-Leu (5 min) (meta-CN)Phe-Leu (20 min)	33	0.35	9.3	100 ± 3	158	5.9	68 ± 4	5.4	12	0.3	
CC(C)C[C@H](NC(=O)[C@H](Cc1cccc([N+](=O)[O-])c1)NC(=O)CNC(=O)CNC(=O)[C@@H](N)Cc1ccc(O)cc1)C(=O)O [Compound 1i]	7.2		Gly-Gly-(meta-NO2)Phe-Leu (5 min) (meta- NO2)Phe-Leu (20 min)	28.8	0.47	9.0	99 ± 6	537	5.3	60 ± 6		49	0.98	Bias Factor µOR (DG = Ref) (µOR [2]; listed as 1i (NO2)): 11.1
CC(C)C[C@H](NC(=O)[C@H](Cc1ccccn1)NC(=O)CNC(=O)CNC(=O)[C@@H](N)Cc1ccc(O)cc1)C(=O)O [Compound 1j] (H-YGG[2Pal]L-OH; N-terminus and C-terminus assumed)			(2-pyridyl)Ala-Leu (5 min) Gly-Gly-(2-pyridyl)Ala-Leu (30 min)	26.8	4.57							40.7	9.12	Ki (δOR [4]): 6.17 nM; Binding Selectivity (δOR vs µOR) (δOR [4]): 1.5; G Protein Selectivity (δOR vs µOR) (FLAG-mouse δOR): 8.9; EC50 (µOR [1]; [6]): 1350 nM; EC50 (δOR [5]): 100 nM
CC(C)C[C@H](NC(=O)[C@H](Cc1cccnc1)NC(=O)CNC(=O)CNC(=O)[C@@H](N)Cc1ccc(O)cc1)C(=O)O [Compound 1k] (H-YGG[3Pal]L-OH; N-terminus and C-terminus assumed)			(3-pyridyl)Ala-Leu (10 min) Gly-Gly-(3-pyridyl)Ala-Leu (20 min)	54	47.9							234	158	Ki (δOR [4]): 33.1 nM; Binding Selectivity (δOR vs µOR) (δOR [4]): 4.8; G Protein Selectivity (δOR vs µOR) (FLAG-mouse δOR): 4.9; EC50 (µOR [1]; [6]): 41700 nM; EC50 (δOR [5]): 1120 nM
C[C@@H](NC(=O)[C@@H](N)Cc1ccc(O)cc1)C(=O)NCC(=O)N(C)[C@@H](Cc1ccccc1)C(=O)NCCO [DAMGO, (D-Ala^2, N-MePhe^4, Gly-ol) enkephalin, reference compound]	7.8	100									1			β-Arrestin 2 µOR Efficacy (% + SEM) (µOR [1]; relative to DAMGO = 100%): 100%
CC(C)C[C@H](NC(=O)[C@H](Cc1ccccc1)NC(=O)CNC(=O)CNC(=O)[C@@H](N)Cc1ccc(O)cc1)C(=O)O [Leu^5-enkephalin, Tyr^1-Gly^2-Gly^3-Phe^4-Leu^5, reference compound]		100	Gly-Gly-Phe-Leu (5 min) Phe-Leu (10 min)				100							cAMP µOR Efficacy (%+SD) (HA-mouse µOR; listed as Leu-enkephalin): 100 ± 9%

From PMC6943441, “The Meta-Position of Phe^4 in Leu-Enkephalin Regulates Potency, Selectivity, Functional Activity, and Signaling Bias at the Delta and Mu Opioid Receptors” (Molecules, 2019)
